From US10036036B1, “Compositions and methods for deploying a transgenic refuge as a seed blend” (priority 2007, dated 2018)

Test system: western and northern corn rootworm
Test: Field trial (Example 3): corn rootworm damage by Iowa class, percent of control and synergy threshold
Format: in vivo
Description: A field trial was established and completed in accordance with pertinent protocols and in conformance with USDA notification requirements. The purpose of the trial was to determine the efficacy of transgenic event Cry3Bb.11231 in corn seed in combination with corn rootworm seed treatments using imidacloprid.
All seed treatments with pesticides were carried out as described in Example 1. In seed treatment number 1 and 2, Gaucho® was used for wire worm protection, but at levels sufficiently low that it would be expected to have no effect on corn rootworms (i.e., at a treatment level of about 60 gm of active/100 kg seed or 0.16 mg active/kernel), otherwise, seed receiving treatment number 2 had only transgenic event Cry3Bb.11231 and no pesticide treatment that would be expected to be effective against corn rootworm.
For seeds having treatments numbered 3 through 5, the pesticides were applied by the methods described in Example 1. For seeds having treatment numbers 6 and 7, commercially available Force® 3 G and Lorsban® 15 G were applied to the soil in a 5″ band at the time of sowing. The levels of application are as shown and are within the ranges recommended for standard commercial practice.
Corn seeds to be tested were planted and grown at four different locations across several Midwestern states in the United States corn belt according to the protocol described above.
The determination of damage by corn root worm was made according to the protocol described in Example 2.
The combination of imidacloprid seed treatment with corn seed having a Cry3Bb.11231 transgenic event was tested for possible synergy at a level of rootworm damage of 3-6. In the first test, shown in Table 2, the percentage of test plants having damage levels of from 3 to 6, on the Iowa 1-6 Scale, was determined for the control and for seeds treated with the pesticide at two levels, and for seeds having the transgenic event, alone and in combination. The following formula was then used to calculate a “synergy threshold”: (% of control Cry3Bb.11231)*(% of control imidacloprid treatment)/100.
This threshold was compared against the percent of control for the treatment combination (i.e., Cry3Bb.11231 with imidacloprid @ 400 gm/100 kg). If the treatment combination percent of control was below the threshold, then it was concluded that there was synergy.
It was believed that the measurement of rootworm damage at higher damage levels (i.e., levels 3-6) is a useful indicator that correlates with subsequent yield loss due to such damage. The reason for this is that rootworm damage at levels 1 and 2 seldom causes corn plants to fall over and lodge, and such minimal root loss is not believed to reduce the number or weight of kernels per ear. However, root damage at levels of 3 and above increasingly causes lodging and loss of yield. Therefore, it is believed that the summed damage levels of 3-6 (and in some cases, 4-6 and 5 and 6), provides a useful indication of the effect of corn rootworm damage on subsequent corn yield.

## O=[N+]([O-])NC1=NCCN1Cc1ccc(Cl)nc1 [Imidacloprid, 1-[(6-chloro-3-pyridinyl)methol]-N-nitro-2-imidazolidinimime]
Table 2, plants with damage levels 3-6 relative to isohybrid control
  PERCENT OF CONTROL: 80.5%
Table 3, damage levels 3-6 on Iowa 1-6 scale
  NUMBER OF PLANTS HAVING 3-6 DAMAGE LEVEL: 71.7
Table 3, damage levels 3-6 relative to untreated control
  PERCENT OF CONTROL: 80.5%
Count of plants in Iowa class 1
  CORN ROOTWORM DAMAGE IN EACH IOWA CLASS (IOWA 1-6 SCALE): 1: 3
Count of plants in Iowa class 2
  CORN ROOTWORM DAMAGE IN EACH IOWA CLASS (IOWA 1-6 SCALE): 2: 15
Count of plants in Iowa class 3
  CORN ROOTWORM DAMAGE IN EACH IOWA CLASS (IOWA 1-6 SCALE): 3: 36
Count of plants in Iowa class 4
  CORN ROOTWORM DAMAGE IN EACH IOWA CLASS (IOWA 1-6 SCALE): 4: 21
Count of plants in Iowa class 5
  CORN ROOTWORM DAMAGE IN EACH IOWA CLASS (IOWA 1-6 SCALE): 5: 5
Count of plants in Iowa class 6
  CORN ROOTWORM DAMAGE IN EACH IOWA CLASS (IOWA 1-6 SCALE): 6: 0
